Values after ≈ are worked out from the molar mass of the structure shown.
How the values were obtained:
A2-adenosine receptors = biological target: T1, A2-adenosine receptors (Rattus norvegicus, UniProt P30543); assay: Competitive binding assay at A2 receptors ([3H]CGS21680); conditions: [3H]CGS21680, rat striatum; read-out: Ki at central rat receptors, A2
T1 construct: adenosine receptors in rat striatal membranes were measured as described; from tissue; host or cells: rat striatal membranes
Description: The Ki values (in nM) for A1 and A2 binding in rat striatum are presented in Table 4 with the relative selectivities expressed as the ratio of Ki values. […] Table 4 also indicates the synthesis method used for each compound therein.
(§1) A1 ligand = [^3 H]RPIA, A2 ligand = [^3 H]CGS21680
(§2) Inhibition of binding by a range of concentrations of an adenosine derivative was assessed in triplicate in at least three separate experiments. At least seven different concentrations spanning three orders of magnitude, adjusted appropriate for the IC50 of each compound were used. IC50 values Ci/mmol) or [^3 H]CGS21680. Inhibition of [^3 H]NECA binding of to A2 -adenosine receptors in rat striatal membranes were measured as described, except that 5 mM theophylline was used to define non-specific binding. N^6 -Cyclopentyladenosine was present at 50 nM to inhibit binding of the ligand at A1 -adenosine receptors. IC50 values were converted to Ki -values as described.

A1-adenosine receptors [1] = biological target: T2, A1-adenosine receptors (Rattus norvegicus, UniProt P25099); assay: Competitive binding assay at A1 receptors ([3H]RPIA); conditions: for Ki: [3H]RPIA, rat brain membranes, read-out: Ki at central rat receptors, A1; for A2/A1 ratio: ratio of Ki values A2/A1
T2 construct: adenosine receptors in rat cerebral cortex membranes was assayed as described; from tissue; b141 says rat striatum
T2 sequence (P25099 1-326): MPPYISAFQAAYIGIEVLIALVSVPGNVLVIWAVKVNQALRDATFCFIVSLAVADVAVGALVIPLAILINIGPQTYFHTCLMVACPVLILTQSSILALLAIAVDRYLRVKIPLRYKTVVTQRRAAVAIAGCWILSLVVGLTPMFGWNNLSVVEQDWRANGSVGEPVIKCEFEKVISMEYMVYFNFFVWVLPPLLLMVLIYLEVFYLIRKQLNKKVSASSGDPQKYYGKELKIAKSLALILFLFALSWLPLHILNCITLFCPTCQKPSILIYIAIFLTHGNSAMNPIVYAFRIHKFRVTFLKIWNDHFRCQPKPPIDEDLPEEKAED
Description: Table 4 also indicates the synthesis method used for each compound therein.
as §1, §2

[2] = Solubility of analogs in pH 7.2 phosphate buffer; format: physicochemical; conditions: aqueous buffer; pH 7.2 phosphate buffer with DMSO, 2-3 h room temperature, absorbance at 310 nm, mean of 3
Description: The method for determining the solubilities of the xanthines is detailed in the Experimental Section below.
Solubility of Analogs. To 675 uL of pH 7.2 phosphate buffer was added 25 uL of a DMSO solution (approx. 10 mM) of the xanthine to be assayed. This was stirred for one minutes by a vortex mixer then left at room temperature for 2-3 hours. In each case (except where noted) a fine precipitate resulted which was collected by centrifugation at the end of the waiting period. After the dissolution period, a 100 uL aliquot of the supernatant was added to 1.0 mL of methanol and the absorbance measured at 310 nm using an extinction coefficient of 28,180 for calculating the concentration. Each xanthine was assayed 3 times and the concentration represent the averages of these 3 determinations.

rat brain A1-receptors = conditions: prior work; cited from earlier work
A1-adenosine receptors [3] = biological target: T2, A1-adenosine receptors; format: binding; conditions: 0.75 h; for inhibition at 0.02 µM: 20 nM
Description: The degree of irreversible binding was determined as previously described and the percent inhibition of selected compounds is presented in Table 5.
Irreversible Binding to Rat Brain. For studies of irreversible incorporation, membranes were prepared as described above and then incubated with the indicated (Tables I and II) concentration of ligand for 45 minutes at 37° C. […] Membranes were then suspended in Buffer A containing 10^-4 M 3-isobutyl-1-methylxanthine (IBMX) and incubated at 25° C. for 18 hours with shaking. Membranes were then washed twice with Buffer A, treated with adenosine deaminase as described above, and used in radioligand binding studies as described above.
The long treatment with IBMX was found necessary to remove all of the non-incorporated ligands from membranes. Multiple washes (up to 8) with buffer alone were insufficient to remove all the reversibly bound ligands.

T1 sequence (P30543 whole entry): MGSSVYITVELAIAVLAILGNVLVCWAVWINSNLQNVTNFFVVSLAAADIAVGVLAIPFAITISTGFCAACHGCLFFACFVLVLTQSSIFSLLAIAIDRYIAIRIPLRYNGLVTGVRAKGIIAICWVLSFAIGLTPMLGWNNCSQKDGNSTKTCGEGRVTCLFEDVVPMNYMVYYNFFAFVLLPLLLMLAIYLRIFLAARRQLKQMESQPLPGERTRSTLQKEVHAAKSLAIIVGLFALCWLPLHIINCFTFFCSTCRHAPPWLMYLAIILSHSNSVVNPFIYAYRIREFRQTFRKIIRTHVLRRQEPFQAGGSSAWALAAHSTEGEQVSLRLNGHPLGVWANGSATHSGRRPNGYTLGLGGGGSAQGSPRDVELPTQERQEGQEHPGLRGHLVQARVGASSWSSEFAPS

Row | SMILES | Ki (A2-adenosine receptors) [nM] | Ki (A1-adenosine receptors [1]) [nM] | A2/A1 ratio (A1-adenosine receptors [1]) | solubility [2] [µM] | Ki (rat brain A1-receptors) [nM] | inhibition at 0.005 µM (A1-adenosine receptors [3]; 5 nM) [%] | inhibition at 0.02 µM (A1-adenosine receptors [3]) [%] | inhibition at 0.05 µM (A1-adenosine receptors [3]; 50 nM) [%]
1 | CCCn1c(=O)c2[nH]c(-c3ccc(OCC(=O)NCCNC(=S)Nc4cc(N=C=S)cc(C(=O)OC(=O)c5cc(N=C=S)cc(N=C=S)c5)c4)cc3)nc2n(CCC)c1=O | 493 ± 200 | 45 ± 3.5 | 11 |  |  |  |  | 
2 | CCCn1c(=O)c2[nH]c(-c3ccc(OCC(=O)NCCNC(=S)Nc4cc(N=C=S)cc(NC(=S)NCC(=O)OC(C)(C)C)c4)cc3)nc2n(CCC)c1=O | 3290 | 8.3 ± 2.2 | 397 |  |  |  |  | 
3 | CCCn1c(=O)c2[nH]c(-c3ccc(OCC(=O)NCCNC(=S)Nc4cc(N=C=S)cc(NC(=S)NCCNc5ccc(N=[N+]=[N-])cc5[N+](=O)[O-])c4)cc3)nc2n(CCC)c1=O | 842 | 27.3 ± 7.2 | 31 |  |  |  |  | 
4 | CCCn1c(=O)c2[nH]c(-c3ccc(OCC(=O)NCCNC(=S)Nc4cc(N=C=S)cc(NC(=S)NCCNC(=O)c5ccc(N=[N+]=[N-])cc5O)c4)cc3)nc2n(CCC)c1=O | 341 | 25.2 | 14 |  |  |  |  | 
5 | CCCn1c(=O)c2[nH]c(-c3ccc(OCC(=O)NCCNC(=S)Nc4cccc(N=C=S)c4)cc3)nc2n(CCC)c1=O [Compound 7] | 343 | 2.39 ± 0.35 | 144 | 90.1 ± 0.56 (≈ 55.9 µg/mL) | 2.4 |  |  | 
6 | CCCn1c(=O)c2[nH]c(-c3ccc(OCC(=O)NCCNC(=S)Nc4cccc(N=C=S)n4)cc3)nc2n(CCC)c1=O [Compound 8, 1,3-Dipropyl-8-(4-(((((2-((((6-isothiocyanatopyrido)amino)thiocarbonyl)amino)ethyl)amino)carbonyl)methyl)oxy)phenyl)xanthine] | 432 ± 20 | 16.2 ± 1.96 | 27 | 17.5 ± 0.06 (≈ 10.9 µg/mL) |  |  |  | 
7 | CCCn1c(=O)c2[nH]c(-c3ccc(OCC(=O)NCCNC(=S)Nc4cc(CO)cc(N=C=S)c4)cc3)nc2n(CCC)c1=O [Compound 9, 1,3-Dipropyl-8-(4-(((((2-((((3-hydroxymethyl-5-isothiocyanatophenyl)amino)thiocarbonyl)amino)ethyl)amino)carbonyl)methyl)oxyl)phenyl)xanthine] | 433 ± 45 | 13.4 ± 2.64 | 32 | 10.8 ± 0.03 (≈ 7.03 µg/mL) |  |  |  | 
8 | CCCn1c(=O)c2[nH]c(-c3ccc(OCC(=O)NCCNC(=S)Nc4cc(N=C=S)cc(C(=O)OCC)c4)cc3)nc2n(CCC)c1=O [Compound 11, 1,3-Dipropyl-8-(4-(((((2-((((3-carbethoxy-5-isothiocyanatophenyl)amino)thiocarbonyl)amino)ethyl)amino)carbonyl)methyl)oxyl)phenyl)xanthine] | 815 ± 145 | 41.6 ± 8.2 | 19 | 9.33 ± 0.43 (≈ 6.46 µg/mL) |  |  |  | 
9 | CCCn1c(=O)c2[nH]c(-c3ccc(OCC(=O)NCCNC(=S)Nc4cc(N=C=S)cc(C(N)=O)c4)cc3)nc2n(CCC)c1=O [Compound 13, 1,3-Dipropyl-8-(4-(((((2-((((3-carboxamide-5-isothiocyanatophenyl)amino)thiocarbonyl)amino)ethyl)amino)carbonyl)methyl)oxy)phenyl)xanthine] | 365 ± 35 | 9.47 ± 2.99 | 39 | 31.4 ± 0.39 (≈ 20.8 µg/mL) |  | 68 ± 7.5 | 90.3 ± 7 | 
10 | CCCn1c(=O)c2[nH]c(-c3ccc(OCC(=O)NCCNC(=S)Nc4cc(N=C=S)cc(C(=O)NCCN(C)C)c4)cc3)nc2n(CCC)c1=O [Compound 14, 1,3-Dipropyl-8-(4-(((((2-((((3-(2-dimethylaminoethylcarboxamide)-5-isothiocyanatophenyl)amino)thiocarbonyl)amino)ethyl)amino)carbonyl)methyl)oxy)phenyl)xanthine] | 497 ± 74 | 7.62 ± 2.19 | 65 | 28.7 ± 0.03 (≈ 21.1 µg/mL) |  |  | 30 ± 8.7 | 46.3 ± 21.8
11 | CCCn1c(=O)c2[nH]c(-c3ccc(OCC(=O)NCCNC(=S)Nc4cc(N=C=S)cc(C(=O)NCCNC(C)=O)c4)cc3)nc2n(CCC)c1=O [Compound 16, 1,3-Dipropyl-8-(4-(((((2-((((3-(2-acetylaminoethylcarboxamide)-5-isothiocyanatophenyl)amino)thiocarbonyl)amino)ethyl)amino)carbonyl)methyl)oxy)phenyl)xanthine] | 247 ± 36 | 7.01 ± 0.52 | 35 | > 1000 |  |  |  | 
12 | CCCn1c(=O)c2[nH]c(-c3ccc(OCC(=O)NCCNC(=S)Nc4cc(N=C=S)cc(C(=O)NCCNC(=O)CCc5ccc(O)cc5)c4)cc3)nc2n(CCC)c1=O [Compound 17] | 1400 | 7.08 ± 1.91 | 198 |  |  |  |  | 
13 | CCCn1c(=O)c2[nH]c(-c3ccc(OCC(=O)NCCNC(=S)Nc4cc(N=C=S)cc(N=C=S)c4)cc3)nc2n(CCC)c1=O [Compound 23, 1,3-Dipropyl-8-(4-(((((2-((((3,5-diisothiocyanatophenyl)amino)thiocarbonyl)amino)ethyl)amino)carbonyl)methyl)oxy)phenyl)-xanthine] | 3540 ± 936 | 3.96 ± 0.59 | 894 |  |  |  |  | 
14 | CCCn1c(=O)c2[nH]c(-c3ccc(OCC(=O)NCCNC(=S)Nc4cc(N=C=S)cc(NC(=S)NCCN(C)C)c4)cc3)nc2n(CCC)c1=O [Compound 24] | 1910 ± 303 | 77.2 ± 2.5 | 25 |  |  |  |  | 
15 | CCCn1c(=O)c2[nH]c(-c3ccc(OCC(=O)NCCNC(=S)Nc4cc(N=C=S)cc(NC(=S)NCCNC(C)=O)c4)cc3)nc2n(CCC)c1=O [Compound 25] | 2540 ± 283 | 57.6 ± 15.7 | 44 | > 100 |  |  |  | 
16 | CCCn1c(=O)c2[nH]c(-c3ccc(OCC(=O)NCCNC(=S)Nc4cc(N=C=S)cc(C(=O)NCCNc5ccc([N+](=O)[O-])c6nonc56)c4)cc3)nc2n(CCC)c1=O [R' = CONH(CH2)2 NH-NBD] | 1330 | 18.1 | 73 |  |  |  |  | 
17 | CCCn1c(=O)c2[nH]c(-c3ccc(OCC(=O)NCCNC(=S)Nc4cc(N=C=S)cc(C(=O)NCCNC(=O)CCCC[C@@H]5SC[C@@H]6NC(=O)N[C@@H]65)c4)cc3)nc2n(CCC)c1=O [R' = CONH(CH2)2 NHCO-biotin] | 11500 | 20.1 ± 3.3 | 572 |  |  |  |  | 
18 | CCCn1c(=O)c2[nH]c(-c3ccc(OCC(=O)NCCNC(=S)Nc4cc(N=C=S)cc(C(=O)NCCNC(=O)CBr)c4)cc3)nc2n(CCC)c1=O [R' = CONH(CH2)2 NHCOCH2 Br] | 688 | 15.8 | 44 |  |  |  |  | 
19 | CCCn1c(=O)c2[nH]c(-c3ccc(OCC(=O)NCCNC(=S)Nc4cc(N=C=S)cc(NC(=S)NCCNC(=S)Nc5ccc(C(=O)O)c(-c6c7ccc(=O)cc-7oc7cc(O)ccc67)c5)c4)cc3)nc2n(CCC)c1=O [R' = NHCSNH(CH2)2 NHCSNH-fluorescein] | 1790 | 234 ± 32.5 | 8 |  |  |  |  | 
20 | CCCn1c(=O)c2[nH]c(-c3ccc(OCC(=O)NCCN)cc3)nc2n(CCC)c1=O [XAC, 8-[4-[[[[(2-aminoethyl)-amino]carbonyl]methyl]oxy]phenyl]-1,3-dipropylxanthine] |  |  |  |  | 1.2 |  |  | 
21 | CCCn1c(=O)c2[nH]c(-c3ccc(OCC(=O)NCCNC(=S)Nc4ccc(N=C=S)cc4)cc3)nc2n(CCC)c1=O [p-DITC-XAC (2b)] |  |  |  |  | 6.6 |  |  | 

— US5310916A, “Trifunctional agents useful as irreversible inhibitors of A1-adenosine receptors” (The United States of America as represented by the …, priority 1990, dated 1994)
